How the values were obtained:
IKKβ/NEMO interaction = target: T1, IKKβ/NEMO interaction (Mus musculus, UniProt O88522); assay: Co-immunoprecipitation of endogenous IKKβ and NEMO in Raw 264.7 cells; type: cell-based; conditions: 100 μM mimetics, 8K-NBD 400 μM, 30 min
T1 construct: Co-immunoprecipitation of endogenous IKKβ and NEMO; endogenous in cells; host or cells: Raw 264.7
Method: (§1) To determine whether the novel NBD mimetics target the NEMO-IKKβ interaction in vivo, co-immunoprecipitations were performed using extracts from Raw 264.7 macrophages (Fig 5A). […] No interaction between NEMO and TNF receptor-associated factor 2 (TRAF2) or IκBα was observed under these conditions. […] The levels of phosphorylated IKK complex, IκBα, and p65 in response to TNF-α and LPS were all reduced by SR12343 (Fig 5D & 5E). […] However, there were no changes in the levels of phospho-c-Jun N-terminal kinase (p-JNK), p-p38MAPK, total JNK, and p38MAPK by treatment with SR12343 (150 μM) in response to TNF-α or LPS stimulation (Fig 5G & 5H). […]
(§2) (A) Co-IP analysis detecting the IKKβ/NEMO interaction. […] NEMO-binding products were then analyzed for levels of IKKβ, IKKα, TRAF2, and IκBα (negative control), and levels of NEMO were used as a loading control (left panel). […] The levels of IKKβ-FLAG binding to GST-NEMO were determined by western blot analysis with GST-NEMO used as a loading control. […] Cell lysates were analyzed for activity of the IKK/NF-κB signaling pathway including activation of IKK complex, IκBα, and p65. […] Cell lysates were harvested and analyzed for activation of noncanonical NF-κB signaling, the processing of p100 to p52. […]

NEMO/IKKα interaction = target: T2, NEMO/IKKα interaction (Mus musculus, UniProt O88522); assay: Co-immunoprecipitation of NEMO and IKKα in Raw 264.7 cells; type: cell-based; conditions: 0, 25, 50, 100, 150 μM, 30 min
T2 construct: Co-immunoprecipitation of endogenous IKKβ and NEMO; endogenous in cells; host or cells: Raw 264.7
T2 sequence (O88522 whole entry): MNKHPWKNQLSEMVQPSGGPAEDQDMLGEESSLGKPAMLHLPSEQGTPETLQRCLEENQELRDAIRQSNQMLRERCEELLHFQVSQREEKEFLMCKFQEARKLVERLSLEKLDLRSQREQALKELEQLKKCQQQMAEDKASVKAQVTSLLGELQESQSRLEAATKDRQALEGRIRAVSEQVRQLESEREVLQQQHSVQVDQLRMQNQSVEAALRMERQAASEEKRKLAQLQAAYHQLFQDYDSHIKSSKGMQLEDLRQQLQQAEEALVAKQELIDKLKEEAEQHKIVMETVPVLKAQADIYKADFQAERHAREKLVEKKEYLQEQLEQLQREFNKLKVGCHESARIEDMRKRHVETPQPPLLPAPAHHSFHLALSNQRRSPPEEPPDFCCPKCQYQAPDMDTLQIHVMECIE
Method: as §1, §2

Ercc1−/Δ mice = assay: Chronic treatment of Ercc1−/Δ mice (health span); type: in vivo, mouse; conditions: preliminary experiments
Description: Thus, these novel NBD mimetics could be used not only for treatment of inflammatory and degenerative diseases but also for aging.

T1 sequence (O88522 whole entry): as above

O=C(CNc1ccc(Cl)cn1)NCCc1cccc(Br)c1 [SR12343]
IKKβ-NEMO interaction (Co-IP) (IKKβ/NEMO interaction): most effective
NEMO/IKKα binding (Co-IP) (NEMO/IKKα interaction): only a marginal effect
Health span (Ercc1−/Δ mice): extended health span

Reference: publication PMC6013238, “Development of novel NEMO-binding domain mimetics for inhibiting IKK/NF-κB activation” (PLoS Biology, 2018)
